Patent US20200061092A1, “METHODS AND COMPOSITIONS FOR TREATING DISORDERS ASSOCIATED WITH MUSCLE WEAKNESS” (priority 2018, published 2020)
Values joined by “and” are separate entries in the source; they are usually repeats but may differ in a detail not shown here. Identical values can stand only once.

Key:
[1] = tested on: FKRP P448L mutant mice; experiment: Histopathological and morphometric analysis (H&E, Masson's Trichrome) of muscles of P448L mice; assay type: in vivo, mouse
Procedure: Ribitol was purchased from Sigma (A5502 Adonitol, ≥98%, Sigma, St. Louis) and dissolved in drinking water to the final concentration of 5% or 10%. […] mice aged at 4 weeks were treated with 5% ribitol drinking water for 1 month and […] mice aged at 7 weeks were treated with 5% ribitol drinking water for 3 months and 6 months. All the mice were randomly assigned to either treatment or control groups. And a minimum number of 4 mice were used for each group. No animal was excluded. […] female breeders were given 10% ribitol in drinking water during pregnancy, and pups continued to be treated with 10% ribitol in drinking water until they were euthanized at 19 weeks of age. Untreated age-matched […] and wild-type C57BL/6 mice were used as controls. The animals were terminated at the end of each treatment time point and tissues including heart, diaphragm, TA, quadriceps, liver, spleen and kidney were collected for analyses. Frozen tissues were processed for hematoxylin and eosin (H&E) and Masson's Trichrome staining following standard procedures. Muscle cross-sectional fiber equivalent diameter was determined from tibialis anterior and quadriceps stained with H&E using MetaMorph v7.7 Software (Molecular Devices). Percentage of centrally nucleated myofibers were manually quantified from the same tissue sections stained with H&E. Fibrotic area represented by blue staining in the Masson's Trichrome stained sections was quantified from heart, diaphragm, tibialis anterior and quadriceps using ImageJ software. For all the morphometric analyses, a total of 300 to 400 fibers from two representative 20× magnification images per each muscle per animal were used.

[2] = tested on: muscular dystrophy caused by FKRP mutations; experiment: Ribitol/ribose supplementation in animal model of FKRP mutation muscular dystrophy; assay type: in vivo; conditions: supplement via drinking water
[3] = tested on: F-α-DG (functionally glycosylated α-DG); experiment: Western blot (IIH6C4) quantification and laminin overlay assay of muscle lysates from ribitol-treated P448L mice; assay type: in vivo, mouse; conditions: for F-α-DG by IIH6C4 western blot, % of normal (C57) levels: 6 months (FIG. 3c)
Procedure: Ribitol was purchased from Sigma (A5502 Adonitol, ≥98%, Sigma, St. Louis) and dissolved in drinking water to the final concentration of 5% or 10%. […] mice aged at 4 weeks were treated with 5% ribitol drinking water for 1 month and […] mice aged at 7 weeks were treated with 5% ribitol drinking water for 3 months and 6 months. All the mice were randomly assigned to either treatment or control groups. And a minimum number of 4 mice were used for each group. No animal was excluded. […] female breeders were given 10% ribitol in drinking water during pregnancy, and pups continued to be treated with 10% ribitol in drinking water until they were euthanized at 19 weeks of age. Untreated age-matched […] and wild-type C57BL/6 mice were used as controls. The animals were terminated at the end of each treatment time point and tissues including heart, diaphragm, TA, quadriceps, liver, spleen and kidney were collected for analyses. For western blot analysis, tissues were homogenized in extraction buffer (50 mM Tris-HCl pH 8.0, 150 mM NaCl, and 1% Triton X-100), supplemented with 1× protease inhibitor cocktail (Sigma-Aldrich). Protein concentration was quantified by Bradford assay (Bio-Rad DC protein assay). Eighty μg of protein was loaded on a 4-15% Bio-Rad Mini-PROTEAN TGX gel (Bio-Rad) and immunoblotted. Amount of total protein loaded for C57 mice was half of the amount loaded for the […] mice. Nitrocellulose membranes (Bio-Rad) were blocked with 5% milk in 1×PBS for 2 hr at room temperature and then incubated with the following primary antibodies overnight at 4° C.: IIH6C4 (1:2000), AF6868 (R&D Systems) (1:1000) and α-actin (Sigma) (1:1000). Appropriate horseradish peroxidase (HRP)-conjugated secondary antibodies were incubated for 2 hr at room temperature. All blots were developed by electrochemiluminescence immunodetection (PerkinElmer). For IIH6C4 band quantification from western blot ImageJ software was used. For laminin overlay assay, nitrocellulose membranes were blocked with laminin overlay buffer (10 mM ethanolamine, 140 mM NaCl, 1 mM MgCl2, and 1 mM CaCl2, pH 7.4) containing 5% nonfat dry milk for 1 hr at 4° C. followed by incubation with laminin from Engelbreth-Holm-Swarm murine sarcoma basement membrane (L2020) (Sigma) at a concentration of 2 μg/ml overnight at 4° C. in laminin overlay buffer. Membranes were then incubated with rabbit anti-laminin antibody (Sigma) (1:1500) followed by goat anti-rabbit HRP-conjugated IgG secondary antibody (Santa Cruz Biotechnology) (1:3000). Blots were saturated with Western-Lightning Plus ECL (Perkin-Elmer) before exposure to and developing of GeneMate auto-radiographic film (VWR).

[4] = Serum ribitol measurement by LC/MS-MS; assay type: in vivo
From the text: Ribitol was purchased from Sigma (A5502). Sera were collected, and blinded samples were placed in individual wells of a 96-well plate and analyzed by LC/MS-MS. An Applied Biosystems Sciex 4000 (Applied Biosystems; Foster City, Calif.) equipped with a Shimadzu HPLC (Shimadzu Scientific Instruments, Inc.: Columbia, Md.) and Leap auto-sampler (LEAP Technologies; Carrboro, N.C.) were used to detect ribitol from samples and synthetic compound. […] MeOH:ACN (1:1). The following gradient was used: 0-12 min, 5% buffer B; 13-14 min, 95% buffer B, 15-17 min, 5% buffer B. Under these conditions, ribitol eluted at 8.3 min. The metabolite was analyzed using electrospray ionization mass spectrometry operated in positive ion mode, ESI+. Compound concentrations in tissue samples were determined based on standard curves prepared by serial dilutions (200-0.01 μM) of the compound in MeOH:ACN (1:1).

[5] = 10% ribitol from pregnancy to 19 weeks
[6] = 5% ribitol in drinking water (n = 4)

OC[C@@H](O)[C@@H](O)[C@@H](O)CO [ribitol]
Fibrotic area in cardiac muscle vs untreated ([1]; 5% ribitol, 3 and 6 months): significant reduction | Number of fibers with small diameters (TA and quadriceps) ([1]; 5% ribitol, 3 and 6 months): statistically significant decrease | Percentage of CNF (TA and quadriceps) vs untreated ([1]; 5% ribitol, 3 and 6 months): No significant difference | Areas of fibrotic tissue (Masson's Trichrome) vs untreated ([1]; 5% ribitol, 3 and 6 months, limb muscles): significantly decreased | Fibrotic tissue in diaphragm (% of tissue cross-section area) ([1]; 5% ribitol, 3 month treatment): 11% | Fibrotic tissue in diaphragm (% of tissue cross-section area) ([1]; 5% ribitol, 6 month treatment): 18% | Centrally nucleated fibers (CNF) in TA vs untreated [1, 5]: significantly fewer | Fibrosis in cardiac muscle and diaphragm [1, 5]: reduction in fibrosis was significant in cardiac muscle, and most prominent in the diaphragm | Disease pathology of muscular dystrophy caused by FKRP mutations [2]: diminish disease pathology | Functionality of glycosylated α-DG by laminin overlay assay ([3]; 5% ribitol, 6 months): supported by laminin overlay assay | F-α-DG by IIH6C4 western blot, % of normal (C57) levels ([3]; 5% ribitol, cardiac muscle): up to 14% | F-α-DG by IIH6C4 western blot, % of normal (C57) levels ([3]; 5% ribitol, diaphragm): ≤ 17% | Functionality of glycosylated α-DG by laminin overlay assay [3, 5]: supported by laminin overlay assay | F-α-DG by IIH6C4 western blot, % of normal levels ([3]; 10% ribitol from pregnancy to 19 weeks, diaphragm): 18% | F-α-DG by IIH6C4 western blot, % of normal levels ([3]; 10% ribitol from pregnancy to 19 weeks, heart): 14% | F-α-DG by IIH6C4 western blot, % of normal levels ([3]; 10% ribitol from pregnancy to 19 weeks, limb muscle): 26% | Mean serum ribitol [4, 6]: 2355 ug ug/L | Serum ribitol, individual animals [4, 6]: 924 ng/ml and 4221 ng/ml and 3184 ng/ml and 1092, ng/ml | Therapeutic serum concentration in excess of normal ribitol serum levels ([4]; about 10 mg/L vs normal serum level): roughly 1000 × | Tolerability at therapeutic serum concentration ([4]; serum about 10 mg/L): no observable side effects
